US20250101034A1, “COMPOSITIONS USEFUL FOR MODULATING SPLICING” (SKYHAWK THERAPEUTICS, INC., priority 2021, published 2025)

What was measured:
[1] = test system: ATXN3 transcripts containing exon 4 (E4E5); experiment: ATXN3 quantitative splicing assay (qPCR, SK-N-MC cells); type: cell-based; details: Homo sapiens, 24 h treatment, qPCR E4E5 primers/probe, read-out: ATXN3 Potency - Splicing E4E5 IC50
Method in brief: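 SK-N-MC cells treated 24 h with compound (30 μM to 0.6 nM, 0.3% DMSO) 24 h after plating; lysates reverse-transcribed and analysed by TaqMan qPCR. E4E5 primers/probe detect exon 4–containing transcripts; E8E9 measures total ATXN3, alongside exon 4–skipped transcript detection.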

[2] = test system: total ATXN3 protein; experiment: ATXN3 total protein assay (MSD, SK-N-MC cells); type: cell-based, Human; details: 48 hours incubation, read-out: ATXN3 Potency - Protein IC50
Method in brief: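 SK-N-MC human neuroblastoma cells treated with compound (30 μM to 0.6 nM) for 48 h, then lysed with protease inhibitors. Total ATXN3 measured by MSD sandwich immunoassay (mouse capture, rabbit detection antibodies, anti-rabbit MSD-ST secondary), quantified against recombinant ATXN3 standards.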

SMILES | IC50 [1] [µM] | IC50 [2] [µM]
C[C@H](N)Cc1sc2c(NCc3cccs3)cnnc2c1Cl [Compound 36, 6-[(2S)-2-aminopropyl]-7-chloro-N-[(thiophen-2-yl)methyl]thieno[3,2-c]pyridazin-4-amine] | 0.101 to 0.5 | 0.101 to 0.5
C[C@H](N)C(F)(F)c1sc2c(NCc3cccs3)cnnc2c1Br [Compound 140, 6-[(2S)-2-amino-1,1-difluoropropyl]-7-bromo-N-[(thiophen-2-yl)methyl]thieno[3,2-c]pyridazin-4-amine] | 0.501 to 5 | 0.501 to 5
C[C@H](N)Cc1sc2c(NCc3cccs3)cnnc2c1O [Compound 90, 6-[(2S)-2-aminopropyl]-4-[(thiophen-2-ylmethyl)amino]thieno[3,2-c]pyridazin-7-ol] | 10 to 40 | 10 to 40
Cc1c(CO)sc2c(NCc3cccs3)cnnc12 [Compound 114, (7-methyl-4-{[(thiophen-2-yl)methyl]amino}thieno[3,2-c]pyridazin-6-yl)methanol] | 10 to 40 | 10 to 40
Cc1c(C[C@@H](N)CCOC(F)F)sc2c(NCc3cccs3)cnnc12 [Compound 139, 6-[(2S)-2-amino-4-(difluoromethoxy)butyl]-7-methyl-N-(thiophen-2-ylmethyl)thieno[3,2-c]pyridazin-4-amine] | 0.501 to 5 | 0.501 to 5
Cc1csc2c(NCc3cccs3)c(Br)nnc12 [Compound 87, 3-bromo-7-methyl-N-[(thiophen-2-yl)methyl]thieno[3,2-c]pyridazin-4-amine] | 10 to 40 | 10 to 40
Cc1csc2c(NC(=O)c3cccs3)cnnc12 [Compound 89, N-{7-methylthieno[3,2-c]pyridazin-4-yl}thiophene-2-carboxamide] | 10 to 40 | 10 to 40
Cc1c(C[C@H]2CCCN2)sc2c(NCc3cccs3)cnnc12 [Compound 69, 7-methyl-6-[(2R)-pyrrolidin-2-ylmethyl]-N-(thiophen-2-ylmethyl)thieno[3,2-c]pyridazin-4-amine] | 10 to 40 | 10 to 40
C[C@H](N)Cc1sc2c(N[C@@H](C)c3cccs3)cnnc2c1Br [Compound 112, 6-[(2S)-2-aminopropyl]-7-bromo-N-[(1S)-1-(thiophen-2-yl)ethyl]thieno[3,2-c]pyridazin-4-amine] | 10 to 40 | 10 to 40
Cc1c(C[C@H](C)N)sc2c(NC(=O)c3cccs3)cnnc12 [Compound 51, N-{6-[(2S)-2-aminopropyl]-7-methylthieno[3,2-c]pyridazin-4-yl}thiophene-2-carboxamide] | 10 to 40 | 10 to 40
Cc1c(CC(N)C2COC2)sc2c(NCc3cccs3)cnnc12 (stereo not drawn) [Compound 93, 6-[2-amino-2-(oxetan-3-yl)ethyl]-7-methyl-N-[(thiophen-2-yl)methyl]thieno[3,2-c]pyridazin-4-amine] | 5 to 10 | 0.501 to 5
Cc1c(C[C@H](C)N)sc2c(NCc3cc(F)cs3)cnnc12 [Compound 45, 6-[(2S)-2-aminopropyl]-N-[(4-fluorothiophen-2-yl)methyl]-7-methylthieno[3,2-c]pyridazin-4-amine] | 0.501 to 5 | 0.501 to 5
N[C@@H](CO)Cc1sc2c(NCc3ccco3)cnnc2c1Br [Compound 95, (2R)-2-amino-3-(7-bromo-4-{[(furan-2-yl)methyl]amino}thieno[3,2-c]pyridazin-6-yl)propan-1-ol] | 0.501 to 5 | 0.101 to 0.5
Cc1c(C[C@@H](N)CO)sc2c(NCc3cccs3)cnnc12 [Compound 3, (2R)-2-amino-3-{7-methyl-4-[(thiophen-2-ylmethyl)amino]thieno[3,2-c]pyridazin-6-yl}propan-1-ol] | 0.501 to 5 | 0.501 to 5
C[C@H](N)Cc1sc2c(NCc3cccs3)cnnc2c1Br [Compound 35, 6-[(2S)-2-aminopropyl]-7-bromo-N-[(thiophen-2-yl)methyl]thieno[3,2-c]pyridazin-4-amine] | 0.101 to 0.5 | 0.101 to 0.5
Cc1c(CC2CNC2)sc2c(NCc3cccs3)cnnc12 [Compound 73, 6-[(azetidin-3-yl)methyl]-7-methyl-N-[(thiophen-2-yl)methyl]thieno[3,2-c]pyridazin-4-amine] | 10 to 40 | 10 to 40
COC[C@H](N)Cc1sc2c(NCc3cccs3)cnnc2c1Br [Compound 136, 6-[(2R)-2-amino-3-methoxypropyl]-7-bromo-N-[(thiophen-2-yl)methyl]thieno[3,2-c]pyridazin-4-amine] | 0.101 to 0.5 | 0.101 to 0.5
C=C(C)Cc1sc2c(NCc3ccco3)cnnc2c1C [Compound 34, N-[(furan-2-yl)methyl]-7-methyl-6-(2-methylprop-2-en-1-yl)thieno[3,2-c]pyridazin-4-amine] | 10 to 40 | 10 to 40
Cc1c(C[C@H](N)C[C@H]2CC2(F)F)sc2c(NCc3cccs3)cnnc12 [Compound 129, 6-[(2R)-2-amino-3-[(1S)-2,2-difluorocyclopropyl]propyl]-7-methyl-N-(thiophen-2-ylmethyl)thieno[3,2-c]pyridazin-4-amine] | 5 to 10 | 0.501 to 5
Cc1c(C[C@@H](N)C2CC2)sc2c(NCc3ccco3)cnnc12 [Compound 64, 6-[(2R)-2-amino-2-cyclopropylethyl]-N-[(furan-2-yl)methyl]-7-methylthieno[3,2-c]pyridazin-4-amine] | 5 to 10 | 5 to 10
Cc1c(C[C@@H](N)C[S+](C)[O-])sc2c(NCc3cccs3)cnnc12 (stereo partly drawn) [Compound 59, 6-[(2R)-2-amino-3-methanesulfinylpropyl]-7-methyl-N-[(thiophen-2-yl)methyl]thieno[3,2-c]pyridazin-4-amine] | 5 to 10 | 10 to 40
